One compound from patent US8414926B1, “Nanoparticles with covalently bound surfactant for drug delivery” (University of South Florida, priority 2006, dated 2013) can be followed below.

The series deals with human dermal fibroblasts. As to the kind of experiment: Effect of surfactant combined with control nanoparticles on fibroblasts. As to conditions: for toxicity to fibroblasts: combined with control nanoparticles, human dermal fibroblasts. It is filed as cell-based. On the procedure: FIG. 1 is a graph showing the effect of dodecyl sulfate combined with control nanoparticles against human dermal fibroblasts.
The control nanoparticles were added to the wells as an emulsion having 5% solid content, which reduced the amount of surfactant to 0.75%; therefore, more surfactant was added to the emulsion prior to placement in the cell-containing wells in order to reach the designated amounts of surfactant being tested. […] This may be due to interactions of the surfactant with the nanoparticles, which may prohibit the surfactant from interacting with the cells.

Where a name gives a salt, the structure may show the parent alone.

Regarding `CCCCCCCCCCCCOS(=O)(=O)O` [dodecyl sulfate], the toxicity to fibroblasts result (1% surfactant) is “least toxic” and the toxicity to fibroblasts entry (9% surfactant) is “kills all of the cells”. Moreover, where the note is “healthy fibroblasts”, the “toxicity to fibroblasts combined with control nanoparticles versus without control nanoparticles” value is given as “much less toxic”.
